Laboratory results taken from US8722909B2, “Antiprotozoal compound derived from coelenterata” (Waseda University, priority 2010, dated 2014).
In brackets after ≈: the same amount, converted by molar mass.

Experiments:
Format in all cases: cell-based
[1] = test system: EGFP transgenic Leishmania protozoa (LaEGFP); assay: microbe, parasite or virus in culture
Description: EGFP transgenic Leishmania protozoa (LaEGFP, Okuno T et al., Exp. Anim, 52: 109 (2003)) 1×10^5 cells were inoculated into a 96-well plate, and a sample diluted with a culture medium was then added and incubated for 72 hours. Subsequently, the fluorescence intensity within each well was measured using a fluorescence plate reader, and the antileishmanial activity of the test sample was calculated.

[2] = test system: human cervical cancer-derived HeLa cells; assay: Cytotoxicity test (MTT), HeLa; details: isolated compound, 72 hours, read-out: IC50 value against HeLa cells
Description: (§1) A suspension of human cervical cancer-derived HeLa cells and mouse lymphoma-derived P388 cells (1×10^4 cells/mL) 200 μL was dispended into each well of rows A to H, columns 1 to 11 of a 96-well microplate, and the suspension was then incubated for 24 hours at 37° C. Subsequently, 2 μL of a methanol solution of the sample (1 mg/mL) was added to each well of row A, columns 1 to 10 of the 96-well microplate, and 2 μL of adriamycin (1 mg/mL) was added to the well of row A, column 11 as a positive control. Only the culture medium 200 μL was added to each well of rows A to D, column 12, and 200 μL of the aforementioned suspension of 1×10^4 cells/mL was added to each well of rows E to H, column 12. Using a multi-channel pipette, 50 μL of the culture medium was aspirated from the well of each column of row A and added to the well of the corresponding column of row B, and then 50 μL of the culture medium was aspirated from the well of each column of row B and added to the well of the corresponding column of row C. […] Following culturing for 72 hours, 50 μL of 1 mg/mL PBS solution of MTT (3-[4,5-dimethylthiazol-2-yl]-2,5-diphenyl tetrazolium bromide) was added to each well. […] For each well, the absorbance of the colorimetric substrate dissolved in the DMSO was measured using a multi-well plate reader, and the concentration at which half the cells were inhibited (IC50) was determined. […]

[3] = test system: Trypanosoma congolense (bloodstream form); assay: Antitrypanosomal activity test (TetraColor ONE, 48 hours)
Description: Trypanosoma congolense (bloodstream form) 2×10^5 cells were inoculated into a 96-well plate, and a sample diluted with a culture medium was then added and cultured for 48 hours. Subsequently, 10 μL of TetraColor ONE (Seikagaku Biobusiness Corporation) was added to each well to measure the viable cell count, and after 4 hours, the absorbance at 450 nm was measured.

[4] = test system: Plasmodium falciparum K-1 strain; assay: Antiplasmodial activity test (SYBR GREEN, 48 hours); details: read-out: IC50 value against the Plasmodium falciparum K-1 strain
Description: Synchronized 0.5% ring stage Plasmodium falciparum K-1 strain 90 μL was added to each well of a 96-well plate, and a sample diluted with a culture medium was then added and incubated for 48 hours. Subsequently, 100 μL of a mixed solution prepared by adding 0.2 μL of SYBR GREEN to 1 mL of lysis buffer (20 mM Tris (pH 7.5), 5 mM EDTA, 0.008% (wt/vol) saponin, 0.08% (vol/vol) Triton X-100) was added to each well, and stirred with a vortex mixer. Following standing for 1 hour in a dark place, the fluorescence was measured with a fluorescence plate reader, using an excitation wavelength of 485 nm and a detection wavelength of 530 nm.

[5] = test system: human promyelocytic leukemia-derived HL-60 cells; assay: Cytotoxicity test (MTT), HL-60; details: isolated compound, 72 hours, read-out: IC50 value against HL-60 cells
Description: A suspension of human cervical cancer-derived HeLa cells, human promyelocytic leukemia-derived HL-60 cells, and mouse lymphoma-derived P388 cells (1×10^4 cells/mL) 200 μL was dispended into each well of rows A to H, columns 1 to 11 of a 96-well microplate, and the suspension was then incubated for 24 hours at 37° C. Subsequently, 2 μL of a methanol solution of the sample (1 mg/mL) was added to each well of row A, columns 1 to 10 of the 96-well microplate, and 2 μL of adriamycin (1 mg/mL) was added to the well of row A, column 11 as a positive control. Only the culture medium 200 μL was added to each well of rows A to D, column 12, and 200 μL of the aforementioned suspension of 1×10^4 cells/mL was added to each well of rows E to H, column 12. Using a multi-channel pipette, 50 μL of the culture medium was aspirated from the well of each column of row A and added to the well of the corresponding column of row B, and then 50 μL of the culture medium was aspirated from the well of each column of row B and added to the well of the corresponding column of row C. […] For each well, the absorbance of the colorimetric substrate dissolved in the DMSO was measured using a multi-well plate reader, and the concentration at which half the cells were inhibited (IC50) was determined.

[6] = test system: mouse lymphoma-derived P388 cells; assay: Cytotoxicity test (MTT), P388; details: isolated compound, 72 hours, read-out: IC50 value against P388 cells
Description: as §1

Question: cristaxenicin A was tested. Which “antiprotozoal activity of HPLC peak fractions (in words)” value ([1]; reversed phase HPLC peak fractions) did it give?
Answer: exhibited antiprotozoal activity

Question: What does the source list for CC(=O)O/C=C1\CCC/C(C=O)=C\C[C@@H]2C(C(=O)CC=C(C)C)=CO[C@H](OC(C)=O)[C@@H]12 [cristaxenicin A]?
Answer: IC50 [2]: 2 µg/mL (≈ 4.65 µM); IC50 ([3]; Trypanosoma congolense, read-out: IC50 value against the T. congolense): 0.107 µg/mL (≈ 0.249 µM); IC50 [4]: 4.6 µg/mL (≈ 10.7 µM); IC50 [5]: 0.727 µg/mL (≈ 1.69 µM); IC50 [6]: 0.89 µg/mL (≈ 2.07 µM); IC50 ([1]; Leishmania, 72 h, read-out: IC50 value against the LaEGFP (antileishmanial activity)): 0.036 µg/mL (≈ 0.0836 µM)

Question: C[C@@H]1[C@H](O)[C@@H](C)/C=C/C=C/C=C/C=C/C=C/C=C/C=C/[C@H](O[C@@H]2O[C@H](C)[C@@H](O)[C@H](N)[C@@H]2O)C[C@@H]2O[C@](O)(C[C@@H](O)C[C@@H](O)[C@H](O)CC[C@@H](O)C[C@@H](O)CC(=O)O[C@H]1C)C[C@H](O)[C@H]2C(=O)O [amphotericin B, reference compound] was tested. Which “IC50 value against the T. congolense” value [3] did it give?
Answer: 0.811 µg/mL (≈ 0.878 µM)

Question: What about the “IC50 value against the LaEGFP (antileishmanial activity)” value ([1]; LaEGFP, 72 hours) of the same molecule?
Answer: approximately 20 ng/mL
